Measurements from paper PMC9234961 (Journal of Medicinal Chemistry, 2022).

Tests used:
OPRM1 = OPRM1 (Homo sapiens, UniProt P35372); assay: SAFETYScan GPCR cAMP, Agonist; format: cell-based
Description: (§1) Supplement jm1c02175_si_002.xlsx, sheet "SAFETYScan" | column: RC50 (uM); Max Response

CNR1 = molecular target: T1, CNR1 (Homo sapiens, UniProt P21554); assay: SAFETYScan GPCR cAMP, Agonist; format: cell-based
T1 construct: expressed in transfected cells
Description: as §1

ADRB1 = molecular target: T2, ADRB1 (Homo sapiens, UniProt P08588); assay: SAFETYScan GPCR cAMP, Agonist; format: cell-based
T2 construct: expressed in transfected cells
Description: as §1

DRD1 = molecular target: T3, DRD1 (Homo sapiens, UniProt P21728); assay: SAFETYScan GPCR cAMP, Agonist; format: cell-based
T3 construct: expressed in transfected cells
Description: as §1

OPRD1 = OPRD1 (Homo sapiens, UniProt P41143); assay: SAFETYScan GPCR cAMP, Agonist; format: cell-based
Description: as §1

ADRB2 = molecular target: T4, ADRB2 (Homo sapiens, UniProt P07550); assay: SAFETYScan GPCR cAMP, Agonist; format: cell-based
T4 construct: expressed in transfected cells
Description: as §1

CNR2 = molecular target: T5, CNR2 (Homo sapiens, UniProt P34972); assay: SAFETYScan GPCR cAMP, Agonist; format: cell-based
T5 construct: expressed in transfected cells
Description: as §1

in vitro = in vitro ADME; details: bovine; fraction unbound in OCI-Ly1 DC50 assay medium; read-out: fu,media
HRH1 = HRH1 (Homo sapiens, UniProt P35367); assay: SAFETYScan GPCR Calcium Flux, Antagonist; format: cell-based
Description: as §1

EDNRA = molecular target: T6, EDNRA (Homo sapiens, UniProt P25101); assay: SAFETYScan GPCR Calcium Flux, Antagonist; format: cell-based
T6 sequence (P25101 21-427): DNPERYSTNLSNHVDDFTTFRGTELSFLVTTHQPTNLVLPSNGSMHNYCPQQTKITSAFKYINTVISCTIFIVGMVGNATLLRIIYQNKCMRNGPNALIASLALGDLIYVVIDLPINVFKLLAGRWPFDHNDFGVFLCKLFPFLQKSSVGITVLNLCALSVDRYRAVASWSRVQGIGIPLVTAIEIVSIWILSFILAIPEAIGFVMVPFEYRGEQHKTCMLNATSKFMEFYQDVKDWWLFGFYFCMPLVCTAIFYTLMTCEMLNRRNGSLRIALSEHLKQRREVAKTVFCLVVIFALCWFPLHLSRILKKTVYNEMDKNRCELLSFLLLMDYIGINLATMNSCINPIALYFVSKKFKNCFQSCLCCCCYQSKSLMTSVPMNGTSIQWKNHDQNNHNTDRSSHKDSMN
Description: as §1

ADRA1A = molecular target: T7, ADRA1A (Homo sapiens, UniProt P35348); assay: SAFETYScan GPCR Calcium Flux, Antagonist; format: cell-based
T7 sequence (P35348 1-466): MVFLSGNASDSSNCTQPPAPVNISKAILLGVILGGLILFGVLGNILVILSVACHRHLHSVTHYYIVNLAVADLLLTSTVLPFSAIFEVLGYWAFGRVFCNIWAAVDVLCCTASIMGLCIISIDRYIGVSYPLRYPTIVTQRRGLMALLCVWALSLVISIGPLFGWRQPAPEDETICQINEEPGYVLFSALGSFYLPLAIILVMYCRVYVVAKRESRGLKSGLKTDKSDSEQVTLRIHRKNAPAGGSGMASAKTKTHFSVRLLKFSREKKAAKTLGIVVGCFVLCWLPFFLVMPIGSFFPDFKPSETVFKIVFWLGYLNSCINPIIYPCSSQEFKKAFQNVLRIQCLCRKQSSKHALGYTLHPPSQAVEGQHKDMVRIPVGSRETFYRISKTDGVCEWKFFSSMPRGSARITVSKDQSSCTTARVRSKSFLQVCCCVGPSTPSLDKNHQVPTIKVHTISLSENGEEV
Description: as §1

CHRM1 = molecular target: T8, CHRM1 (Homo sapiens, UniProt P11229); assay: SAFETYScan GPCR Calcium Flux, Antagonist; format: cell-based
T8 sequence (P11229 1-460): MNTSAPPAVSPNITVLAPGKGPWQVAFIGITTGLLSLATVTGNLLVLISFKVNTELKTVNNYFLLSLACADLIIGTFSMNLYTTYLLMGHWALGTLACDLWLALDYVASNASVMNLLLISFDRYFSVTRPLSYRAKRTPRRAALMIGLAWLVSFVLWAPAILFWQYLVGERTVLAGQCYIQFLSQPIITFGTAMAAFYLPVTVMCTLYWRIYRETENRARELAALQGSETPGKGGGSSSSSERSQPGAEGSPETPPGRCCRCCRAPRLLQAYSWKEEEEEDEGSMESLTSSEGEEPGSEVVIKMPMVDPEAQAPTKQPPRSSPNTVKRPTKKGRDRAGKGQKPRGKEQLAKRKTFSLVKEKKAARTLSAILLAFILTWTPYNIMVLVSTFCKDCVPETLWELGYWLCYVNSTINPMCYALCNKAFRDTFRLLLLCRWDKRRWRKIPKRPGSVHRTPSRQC
Description: as §1

HTR2A = HTR2A (Homo sapiens, UniProt P28223); assay: SAFETYScan GPCR Calcium Flux, Antagonist; format: cell-based
Description: as §1

HTR2B = molecular target: T9, HTR2B (Homo sapiens, UniProt P41595); assay: SAFETYScan GPCR Calcium Flux, Antagonist; format: cell-based
T9 construct: expressed in transfected cells
Description: as §1

[1] = Linearity PK studies in SCID mice; details: solution formulation
[2] = Microsomal clearance assay (HLM); format: in vitro ADME; details: human liver microsomes, 1 μM compound
Experimental: 6. Supplementary experimental: in vitro DMPK assays
6.1 Microsomal clearance assay
Microsomal clearance was determined in female CD1 mice, female Sprague–Dawley rats, and mixed gender human liver microsomes obtained from BioIVT (Peterborough, U.K.) following incubation of 1 μM compound at 37 °C in 0.5 mg/mL microsomal protein, 3 mmol/L MgCl2, 1 mmol/L NADPH, 2.5 mmol/L and 10 mmol/L phosphate buffer (pH 7.4) (all purchased from Sigma-Aldrich, Gillingham, U.K). Reactions were started by addition of the cofactors following 10 min preincubation of microsomes with test compound and were terminated at −1, 0, 5, 10, 15, and 30 min with three volumes of ice-cold methanol containing internal standard. Samples were centrifuged at 2800g for 30 min at 4 °C and the supernatants analyzed.
Control incubations were prepared as above with omission of cofactors. Compound measurements were […]
separation with a 3 min gradient of 0.1% formic acid in methanol on a Kinetex C18, 50 × 2.1 mm 2.6 μm UPLC column (Phenomenex, Macclesfield, UK). […]

T9 sequence (P41595 whole entry): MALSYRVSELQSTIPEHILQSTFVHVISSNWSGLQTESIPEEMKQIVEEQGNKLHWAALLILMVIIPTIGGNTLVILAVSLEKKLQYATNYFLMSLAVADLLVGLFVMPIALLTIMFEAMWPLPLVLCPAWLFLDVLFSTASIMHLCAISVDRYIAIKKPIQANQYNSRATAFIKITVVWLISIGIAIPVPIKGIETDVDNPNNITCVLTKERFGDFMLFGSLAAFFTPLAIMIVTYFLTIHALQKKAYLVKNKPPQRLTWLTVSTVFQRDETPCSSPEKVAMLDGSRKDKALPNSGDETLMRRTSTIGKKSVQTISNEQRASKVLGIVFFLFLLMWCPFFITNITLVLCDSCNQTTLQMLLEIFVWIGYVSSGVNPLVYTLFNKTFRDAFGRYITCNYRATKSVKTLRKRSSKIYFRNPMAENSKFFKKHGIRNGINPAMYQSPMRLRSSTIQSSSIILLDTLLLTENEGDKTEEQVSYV
HRH1, sequence (P35367 whole entry): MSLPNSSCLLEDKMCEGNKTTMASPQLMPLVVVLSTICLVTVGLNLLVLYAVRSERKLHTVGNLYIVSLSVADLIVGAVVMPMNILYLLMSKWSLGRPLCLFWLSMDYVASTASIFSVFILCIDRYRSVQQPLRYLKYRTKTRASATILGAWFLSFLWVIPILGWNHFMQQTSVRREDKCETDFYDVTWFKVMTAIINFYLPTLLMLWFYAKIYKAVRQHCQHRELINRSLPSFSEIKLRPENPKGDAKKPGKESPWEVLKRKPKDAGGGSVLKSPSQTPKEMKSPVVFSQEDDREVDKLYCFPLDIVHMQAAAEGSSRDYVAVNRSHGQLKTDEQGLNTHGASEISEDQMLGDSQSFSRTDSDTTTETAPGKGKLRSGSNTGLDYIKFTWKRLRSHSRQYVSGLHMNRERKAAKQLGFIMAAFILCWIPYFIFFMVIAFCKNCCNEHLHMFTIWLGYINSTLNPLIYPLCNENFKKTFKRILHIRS
OPRM1, sequence (P35372 whole entry, species assumed): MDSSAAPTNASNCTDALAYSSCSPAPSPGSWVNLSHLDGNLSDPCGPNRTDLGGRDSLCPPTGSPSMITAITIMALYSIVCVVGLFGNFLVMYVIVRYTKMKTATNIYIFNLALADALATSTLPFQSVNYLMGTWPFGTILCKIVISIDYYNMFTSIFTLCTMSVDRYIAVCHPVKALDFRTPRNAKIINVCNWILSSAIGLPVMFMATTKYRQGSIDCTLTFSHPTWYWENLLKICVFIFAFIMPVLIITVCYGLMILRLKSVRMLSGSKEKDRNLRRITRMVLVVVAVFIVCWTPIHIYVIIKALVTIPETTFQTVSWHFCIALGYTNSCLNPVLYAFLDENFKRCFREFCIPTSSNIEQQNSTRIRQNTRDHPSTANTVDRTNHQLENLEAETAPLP
T4 sequence (P07550 whole entry): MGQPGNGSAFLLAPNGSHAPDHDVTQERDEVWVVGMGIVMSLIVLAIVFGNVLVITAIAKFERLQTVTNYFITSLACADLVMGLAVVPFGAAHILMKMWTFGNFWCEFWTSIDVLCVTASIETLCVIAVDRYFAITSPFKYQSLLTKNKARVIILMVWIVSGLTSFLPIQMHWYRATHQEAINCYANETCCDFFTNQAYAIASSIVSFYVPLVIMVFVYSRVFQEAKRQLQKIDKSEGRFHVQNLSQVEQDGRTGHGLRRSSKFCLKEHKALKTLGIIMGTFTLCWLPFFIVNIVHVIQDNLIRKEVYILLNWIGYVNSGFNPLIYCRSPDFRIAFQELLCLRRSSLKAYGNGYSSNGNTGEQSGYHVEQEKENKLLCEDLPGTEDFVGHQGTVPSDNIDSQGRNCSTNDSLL
T1 sequence (P21554 whole entry): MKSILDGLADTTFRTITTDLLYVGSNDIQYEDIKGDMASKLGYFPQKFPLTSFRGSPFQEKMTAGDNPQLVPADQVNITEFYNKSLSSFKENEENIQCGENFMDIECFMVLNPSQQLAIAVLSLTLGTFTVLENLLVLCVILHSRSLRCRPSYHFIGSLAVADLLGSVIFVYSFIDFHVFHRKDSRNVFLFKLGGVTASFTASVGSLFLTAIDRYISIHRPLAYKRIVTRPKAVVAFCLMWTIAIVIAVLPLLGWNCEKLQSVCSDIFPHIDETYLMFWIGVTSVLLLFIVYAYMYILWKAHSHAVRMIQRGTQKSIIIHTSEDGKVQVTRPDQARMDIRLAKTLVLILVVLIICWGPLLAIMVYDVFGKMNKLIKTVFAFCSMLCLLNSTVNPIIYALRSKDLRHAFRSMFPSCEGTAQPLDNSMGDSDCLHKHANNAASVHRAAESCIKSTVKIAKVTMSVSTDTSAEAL
OPRD1, sequence (P41143 whole entry, species assumed): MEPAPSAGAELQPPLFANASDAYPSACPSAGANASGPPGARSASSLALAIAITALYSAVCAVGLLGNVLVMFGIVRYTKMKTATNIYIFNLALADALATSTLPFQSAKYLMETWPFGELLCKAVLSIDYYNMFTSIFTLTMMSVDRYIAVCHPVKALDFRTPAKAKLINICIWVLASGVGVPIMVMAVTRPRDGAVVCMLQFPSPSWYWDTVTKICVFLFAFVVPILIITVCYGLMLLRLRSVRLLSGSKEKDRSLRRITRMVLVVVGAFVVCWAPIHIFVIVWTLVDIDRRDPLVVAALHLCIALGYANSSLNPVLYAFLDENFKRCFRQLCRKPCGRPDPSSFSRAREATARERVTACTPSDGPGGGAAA
T2 sequence (P08588 whole entry): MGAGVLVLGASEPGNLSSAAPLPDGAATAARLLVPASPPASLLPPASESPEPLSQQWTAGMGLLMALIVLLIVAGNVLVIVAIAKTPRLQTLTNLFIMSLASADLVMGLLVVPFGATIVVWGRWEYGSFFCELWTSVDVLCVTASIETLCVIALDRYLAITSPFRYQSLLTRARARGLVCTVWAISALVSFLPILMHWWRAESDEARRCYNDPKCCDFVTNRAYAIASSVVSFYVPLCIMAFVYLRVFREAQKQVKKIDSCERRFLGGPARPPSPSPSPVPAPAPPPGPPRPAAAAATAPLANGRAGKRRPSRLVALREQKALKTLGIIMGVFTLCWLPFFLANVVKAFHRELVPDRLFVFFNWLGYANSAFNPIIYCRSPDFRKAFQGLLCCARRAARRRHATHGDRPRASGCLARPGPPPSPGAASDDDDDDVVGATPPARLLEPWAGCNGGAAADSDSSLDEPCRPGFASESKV
HTR2A, sequence (P28223 whole entry): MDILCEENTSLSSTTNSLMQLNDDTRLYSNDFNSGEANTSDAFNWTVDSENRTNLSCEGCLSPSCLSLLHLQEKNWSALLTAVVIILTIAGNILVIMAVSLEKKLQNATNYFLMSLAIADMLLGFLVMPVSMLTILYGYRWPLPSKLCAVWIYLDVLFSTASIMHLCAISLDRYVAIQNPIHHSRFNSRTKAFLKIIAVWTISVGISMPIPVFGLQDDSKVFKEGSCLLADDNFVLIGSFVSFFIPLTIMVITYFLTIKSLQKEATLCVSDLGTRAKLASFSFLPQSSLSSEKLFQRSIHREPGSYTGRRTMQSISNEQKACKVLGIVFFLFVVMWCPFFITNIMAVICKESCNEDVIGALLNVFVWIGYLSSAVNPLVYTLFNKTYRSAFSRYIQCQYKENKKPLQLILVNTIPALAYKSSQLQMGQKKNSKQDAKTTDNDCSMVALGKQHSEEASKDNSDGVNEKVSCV
T5 sequence (P34972 whole entry): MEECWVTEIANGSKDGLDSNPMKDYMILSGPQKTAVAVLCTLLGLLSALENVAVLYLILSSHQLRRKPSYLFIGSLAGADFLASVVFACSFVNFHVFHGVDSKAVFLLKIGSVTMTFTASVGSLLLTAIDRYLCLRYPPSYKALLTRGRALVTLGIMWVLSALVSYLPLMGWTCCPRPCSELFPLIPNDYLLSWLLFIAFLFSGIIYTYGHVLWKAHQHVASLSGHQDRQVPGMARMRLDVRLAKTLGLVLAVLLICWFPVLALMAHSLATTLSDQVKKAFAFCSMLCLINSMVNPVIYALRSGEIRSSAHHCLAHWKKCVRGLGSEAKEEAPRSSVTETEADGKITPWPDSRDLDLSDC
T3 sequence (P21728 whole entry): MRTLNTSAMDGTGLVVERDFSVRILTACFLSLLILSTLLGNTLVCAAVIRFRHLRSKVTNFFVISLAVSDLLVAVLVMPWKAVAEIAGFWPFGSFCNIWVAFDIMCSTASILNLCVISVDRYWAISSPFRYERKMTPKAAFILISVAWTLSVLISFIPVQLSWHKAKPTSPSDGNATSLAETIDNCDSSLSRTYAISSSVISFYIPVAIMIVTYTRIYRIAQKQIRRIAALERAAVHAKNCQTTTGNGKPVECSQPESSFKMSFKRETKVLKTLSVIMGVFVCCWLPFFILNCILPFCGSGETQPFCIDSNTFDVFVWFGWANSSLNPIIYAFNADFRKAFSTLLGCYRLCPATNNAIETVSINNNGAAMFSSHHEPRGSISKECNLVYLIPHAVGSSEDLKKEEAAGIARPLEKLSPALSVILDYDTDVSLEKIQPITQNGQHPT

With `C[C@H]1C[C@@H](O)CN(c2ncc(Cl)c(Nc3ccc4c(c3)c3c(c(=O)n4C)OCC(F)(F)[C@H](C4CC4)N3)n2)C1` [12a CCT373566, (S)-10-((5-Chloro-2-((3R,5S)-3-hydroxy-5-methylpiperidin-1-yl)pyrimidin-4-yl)amino)-2-cyclopropyl-3,3-difluoro-7-methyl-1,2,3,4-tetrahydro-[1,4]oxazepino[2,3-c]quinolin-6(7H)-one] the Emax (OPRM1; read-out: Max Response) was 28.9%, the EC50 (OPRM1; read-out: RC50 (EC50)) was > 10 µM and the Emax (CNR1; read-out: Max Response) was 18.9%. For the same molecule, the EC50 (CNR1; read-out: RC50 (EC50)) was > 10 µM, the Emax (ADRB1; read-out: Max Response) was 0% and the EC50 (ADRB1; read-out: RC50 (EC50)) was > 10 µM. For the same molecule, the Emax (DRD1; read-out: Max Response) was 0%, the EC50 (DRD1; read-out: RC50 (EC50)) was > 10 µM and the Emax (OPRD1; read-out: Max Response) was 60.3%. For the same molecule, the EC50 (OPRD1; read-out: RC50 (EC50)) was 4.95 µM, the Emax (ADRB2; read-out: Max Response) was 0% and the EC50 (ADRB2; read-out: RC50 (EC50)) was > 10 µM. For the same molecule, the Emax (CNR2; read-out: Max Response) was 0%, the EC50 (CNR2; read-out: RC50 (EC50)) was > 10 µM and the fraction unbound (in vitro) was 0.13. For the same molecule, the Emax (HRH1; read-out: Max Response) was 0%, the IC50 (HRH1; read-out: RC50 (IC50)) was > 10 µM and the Emax (EDNRA; read-out: Max Response) was 0%. For the same molecule, the IC50 (EDNRA; read-out: RC50 (IC50)) was > 10 µM, the Emax (ADRA1A; read-out: Max Response) was 0% and the IC50 (ADRA1A; read-out: RC50 (IC50)) was > 10 µM. For the same molecule, the Emax (CHRM1; read-out: Max Response) was 3.44%, the IC50 (CHRM1; read-out: RC50 (IC50)) was > 10 µM and the Emax (HTR2A; read-out: Max Response) was 1.76%. For the same molecule, the IC50 (HTR2A; read-out: RC50 (IC50)) was > 10 µM, the Emax (HTR2B; read-out: Max Response) was 24.2% and the IC50 (HTR2B; read-out: RC50 (IC50)) was > 10 µM. The exposure versus dose [1] was “exposure increased with the dose”, the microsomal CLint at 0.5 h, 1 µM ([2]; both sexes, pH 7.4) was 8 µL/min/mg and the “CLint (HLM)” value [2] was “low clearance”.
